The target of this assay is TrkA (Homo sapiens (Human), UniProt P04629). Briefly: TrkA Omnia Assay. The assay is classed as biochemical. As to conditions: averaged IC50; 20 nM enzyme, 500 μM ATP, 10 μM peptide substrate. Summed up: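 Recombinant TrkA (20 nM) preincubated 10 min at ambient temperature with compound, then Omnia Tyr Peptide #4 (10 μM) and ATP (500 μM) added in 25 mM MOPS pH 7.5, 5 mM MgCl2, 0.005% Triton X-100. Fluorescence (ex 360/em 485 nm) followed continuously for 70 min; IC50 from initial rates by 4- or 5-parameter logistic fit.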

Our source for the IC50 values is patent US10323022B2, “Pyrrolidinyl urea, pyrrolidinyl thiourea and pyrrolidinyl guanidine compounds as TrkA kinase inhibitors” (Array BioPharma Inc., priority 2011, dated 2019).

pIC50: −log10 of the molar value. Structures can show the parent of a compound that is named as a salt. Some results are limits rather than exact numbers.

Chain of TrkA (P04629 33-796): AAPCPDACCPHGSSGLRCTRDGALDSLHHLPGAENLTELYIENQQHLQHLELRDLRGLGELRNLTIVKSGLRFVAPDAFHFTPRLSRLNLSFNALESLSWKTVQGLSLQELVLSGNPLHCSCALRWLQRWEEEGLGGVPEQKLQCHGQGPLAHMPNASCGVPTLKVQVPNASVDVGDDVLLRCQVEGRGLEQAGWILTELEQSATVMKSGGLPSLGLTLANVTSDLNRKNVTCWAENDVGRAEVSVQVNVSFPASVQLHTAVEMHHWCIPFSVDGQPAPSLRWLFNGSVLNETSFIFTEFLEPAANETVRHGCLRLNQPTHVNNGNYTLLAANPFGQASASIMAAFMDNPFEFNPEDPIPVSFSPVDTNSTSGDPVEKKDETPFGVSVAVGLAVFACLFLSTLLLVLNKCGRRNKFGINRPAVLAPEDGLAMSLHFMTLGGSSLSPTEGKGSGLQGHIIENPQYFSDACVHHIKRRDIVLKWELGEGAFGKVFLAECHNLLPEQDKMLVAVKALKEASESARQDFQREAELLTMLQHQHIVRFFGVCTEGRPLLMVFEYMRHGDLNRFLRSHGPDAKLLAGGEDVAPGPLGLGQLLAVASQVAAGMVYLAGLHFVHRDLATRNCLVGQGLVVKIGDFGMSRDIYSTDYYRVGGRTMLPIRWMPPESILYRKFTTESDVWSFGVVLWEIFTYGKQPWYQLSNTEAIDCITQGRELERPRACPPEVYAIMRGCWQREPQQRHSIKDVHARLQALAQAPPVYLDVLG

On to `COCCN1C[C@@H](NC(=O)Nc2c(Br)c(-c3ccccc3)nn2C)[C@H](c2ccc(F)c(F)c2)C1` [Example 68, 1-(4-bromo-1-methyl-3-phenyl-1H-pyrazol-5-yl)-3-((3S,4R)-4-(3,4-difluorophenyl)-1-(2-methoxyethyl)pyrrolidin-3-yl)urea], for which the pIC50 – broadly, −log10 of the IC50, conventionally taken in molar units – is 5.00 to 6.00.

As for `CCOc1ncccc1N1C[C@@H](NC(=O)Nc2c(C)c(OCC)nn2-c2ccccc2)[C@H](c2ccccc2)C1` [Example 243, 1-(3-ethoxy-4-methyl-1-phenyl-1H-pyrazol-5-yl)-3-((3S,4R)-1-(2-ethoxypyridin-3-yl)-4-phenylpyrrolidin-3-yl)urea], the pIC50 was over 7.00. Regarding `COCCN1C[C@@H](NC(=O)Nc2c(C)c(OCCN3CCN(C(=O)OC(C)(C)C)CC3)nn2-c2ccccc2)[C@H](c2ccc(F)c(F)c2)C1` [Example 388, tert-butyl 4-(2-((5-(3-((3S,4R)-4-(3,4-difluorophenyl)-1-(2-methoxyethyl)pyrrolidin-3-yl)ureido)-4-methyl-1-phenyl-1H-pyrazol-3-yl)oxy)ethyl)piperazine-1-carboxylate], the pIC50 is over 7.00. The result for `COCCN1C[C@@H](NC(=O)Nc2c(Cl)c(COC)nn2-c2ccccc2)[C@H](c2ccc(F)c(F)c2)C1` [Example 403, 1-(4-chloro-3-(methoxymethyl)-1-phenyl-1H-pyrazol-5-yl)-3-((3S,4R)-4-(3,4-difluorophenyl)-1-(2-methoxyethyl)pyrrolidin-3-yl)urea] reads over 7.00. The result for `COCCN1C[C@@H](NC(=O)Nc2c(Br)c(COC3CCN(C(=O)OC(C)(C)C)CC3)nn2-c2ccccc2)[C@H](c2ccc(F)c(F)c2)C1` [Example 579, tert-butyl 4-((4-bromo-5-(3-((3S,4R)-4-(3,4-difluorophenyl)-1-(2-methoxyethyl)pyrrolidin-3-yl)ureido)-1-phenyl-1H-pyrazol-3-yl)methoxy)piperidine-1-carboxylate] reads over 7.00; that for `O=C(Nc1c2c(nn1-c1ccccc1)CCC2)N[C@@H]1CN(C(CF)CF)C[C@H]1c1ccccc1` (relative stereo) [Example 206, 1-((trans)-1-(1,3-difluoropropan-2-yl)-4-phenylpyrrolidin-3-yl)-3-(2-phenyl-2,4,5,6-tetrahydrocyclopenta[c]pyrazol-3-yl)urea], 6.00 to 7.00; that for `COCCN1C[C@@H](NC(=O)Nc2c(C)c(OC)nn2-c2ccccc2)[C@H](c2ccc(F)c(F)c2)C1` [Example 140, 1-((3S,4R)-4-(3,4-difluorophenyl)-1-(2-methoxyethyl)pyrrolidin-3-yl)-3-(3-methoxy-4-methyl-1-phenyl-1H-pyrazol-5-yl)urea], over 7.00. `COCCN1C[C@@H](NC(=O)Nc2c(Cl)c(C3CCNCC3)nn2-c2ccccc2)[C@H](c2ccc(F)c(F)c2)C1` [Example 581, 1-(4-chloro-1-phenyl-3-(piperidin-4-yl)-1H-pyrazol-5-yl)-3-((3S,4R)-4-(3,4-difluorophenyl)-1-(2-methoxyethyl)pyrrolidin-3-yl)urea dihydrochloride] gave a pIC50 of over 7.00. `COCCN1C[C@@H](NC(=O)Nc2c(Cl)c(C(F)(F)CO)nn2-c2ccccc2)[C@H](c2cc(F)cc(F)c2)C1` [Example 410, 1-(4-chloro-3-(1,1-difluoro-2-hydroxyethyl)-1-phenyl-1H-pyrazol-5-yl)-3-((3S,4R)-4-(3,5-difluorophenyl)-1-(2-methoxyethyl)pyrrolidin-3-yl)urea] showed a pIC50 of over 7.00. `COCCN1C[C@@H](NC(=O)Nc2c(C)c(OC[C@@H](O)C(F)(F)F)nn2-c2ccccc2)[C@H](c2cc(F)cc(F)c2)C1` [Example 367, 1-((3S,4R)-4-(3,5-difluorophenyl)-1-(2-methoxyethyl)pyrrolidin-3-yl)-3-(4-methyl-1-phenyl-3-((R)-3,3,3-trifluoro-2-hydroxypropoxy)-1H-pyrazol-5-yl)urea] showed a pIC50 of over 7.00. The result for `COCCN1C[C@@H](NC(=O)Nc2cc(C(C)C)nn2-c2ccccc2)[C@H](c2ccccc2F)C1` (relative stereo) [Example 43, trans-1-(4-(2-fluorophenyl)-1-(2-methoxyethyl)pyrrolidin-3-yl)-3-(3-isopropyl-1-phenyl-1H-pyrazol-5-yl)urea] reads 6.00 to 7.00. With `COCCN1C[C@@H](NC(=O)Nc2c(C)c(-c3cnn(C)c3)nn2-c2ccccc2)[C@H](c2cc(F)cc(Cl)c2)C1` [Example 467, 1-((3S,4R)-4-(3-chloro-5-fluorophenyl)-1-(2-methoxyethyl)pyrrolidin-3-yl)-3-(1′,4-dimethyl-1-phenyl-1H, 1′H-3,4′-bipyrazol-5-yl)urea], the pIC50 is over 7.00. In turn, `COCCN1C[C@@H](NC(=O)Nc2c(C)c(-c3cnn(C)n3)nn2-c2ccccc2)[C@H](c2ccc(F)cc2)C1` [Example 385, 1-((3S,4R)-4-(4-fluorophenyl)-1-(2-methoxyethyl)pyrrolidin-3-yl)-3-(4-methyl-3-(2-methyl-2H-1,2,3-triazol-4-yl)-1-phenyl-1H-pyrazol-5-yl)urea] showed a pIC50 of over 7.00. The figure for `COCCN1C[C@@H](NC(=O)Nc2c(C)c(-c3ccc(=O)n(C)c3)nn2-c2ccccc2)[C@H](c2cc(F)c(F)c(F)c2)C1` [Example 604, 1-((3S,4R)-1-(2-methoxyethyl)-4-(3,4,5-trifluorophenyl)pyrrolidin-3-yl)-3-(4-methyl-3-(1-methyl-6-oxo-1,6-dihydropyridin-3-yl)-1-phenyl-1H-pyrazol-5-yl)urea] is over 7.00; for `COCCN1C[C@@H](NC(=O)Nc2c(Cl)c(-c3cnn(C)c3)nn2-c2ccccc2)[C@H](c2ccc(F)cc2)C1` [Example 424, 1-(4-chloro-1′-methyl-1-phenyl-1H,1′H-[3,4′-bipyrazol]-5-yl)-3-((3S,4R)-4-(4-fluorophenyl)-1-(2-methoxyethyl)pyrrolidin-3-yl)urea] it is over 7.00. With `COCCN1C[C@@H](NC(=O)Nc2c(C)c(C)nn2-c2ccccc2)[C@H](c2cccc(C(F)(F)F)c2)C1` [Example 336, 1-(3,4-dimethyl-1-phenyl-1H-pyrazol-5-yl)-3-((3S,4R)-1-(2-methoxyethyl)-4-(3-(trifluoromethyl)phenyl)pyrrolidin-3-yl)urea], the pIC50 was over 7.00. The figure for `COCCN1C[C@@H](NC(=O)Nc2c(C)c(C3CC3)nn2-c2ccccc2)[C@H](c2ccc(F)cc2)C1` [Example 534, 1-(3-cyclopropyl-4-methyl-1-phenyl-1H-pyrazol-5-yl)-3-((3S,4R)-4-(4-fluorophenyl)-1-(2-methoxyethyl)pyrrolidin-3-yl)urea] is over 7.00; for `COCCN1C[C@@H](NC(=O)Nc2c(C)c(-c3cnn(C)c3)nn2-c2ccc(F)cc2)[C@H](c2ccc(F)cc2)C1` [Example 318, 1-((3S,4R)-4-(4-fluorophenyl)-1-(2-methoxyethyl)pyrrolidin-3-yl)-3-(1-(4-fluorophenyl)-1′,4-dimethyl-1H,1′H-[3,4′-bipyrazol]-5-yl)urea] it is 6.00 to 7.00. The result for `COCCN1C[C@@H](NC(=O)Nc2c(Cl)c(OCc3ccccc3)nn2C)[C@H](c2ccc(F)c(F)c2)C1` [Example 539, 1-(3-(benzyloxy)-4-chloro-1-methyl-1H-pyrazol-5-yl)-3-((3S,4R)-4-(3,4-difluorophenyl)-1-(2-methoxyethyl)pyrrolidin-3-yl)urea] reads 6.00 to 7.00; that for `COCCN1C[C@@H](NC(=O)Nc2c(C(N)=O)c(C)nn2-c2ccccc2)[C@H](c2ccc(Cl)c(F)c2)C1` (relative stereo) [Example 624, 5-(3-((trans)-4-(4-chloro-3-fluorophenyl)-1-(2-methoxyethyl)pyrrolidin-3-yl)ureido)-3-methyl-1-phenyl-1H-pyrazole-4-carboxamide], over 7.00; that for `COCCN1C[C@@H](NC(=O)Nc2c3c(nn2-c2ccnnc2)CCC3)[C@H](c2ccc(F)c(F)c2)C1` [Example 395, 1-((3S,4R)-4-(3,4-difluorophenyl)-1-(2-methoxyethyl)pyrrolidin-3-yl)-3-(2-(pyridazin-4-yl)-2,4,5,6-tetrahydrocyclopenta[c]pyrazol-3-yl)urea], 6.00 to 7.00. The figure for `COCCN1C[C@@H](NC(=O)Nc2c(C)c(CC(C)(C)O)nn2-c2ccccc2)[C@H](c2ccc(F)c(F)c2)C1` [Example 288, 1-((3S,4R)-4-(3,4-difluorophenyl)-1-(2-methoxyethyl)pyrrolidin-3-yl)-3-(3-(2-hydroxy-2-methylpropyl)-4-methyl-1-phenyl-1H-pyrazol-5-yl)urea] is over 7.00; for `COCCN1C[C@@H](NC(=O)Nc2c(C)c(-c3cnn(C)c3)nn2-c2ccccc2)[C@H](c2ccc(F)cc2F)C1` [Example 324, 1-((3S,4R)-4-(2,4-difluorophenyl)-1-(2-methoxyethyl)pyrrolidin-3-yl)-3-(1′,4-dimethyl-1-phenyl-1H,1′H-[3,4′-bipyrazol]-5-yl)urea] it is over 7.00; for `COCC(C(=O)O)N1C[C@@H](NC(=O)Nc2c3c(nn2-c2ccccc2)CCC3)[C@H](c2ccc(F)c(F)c2)C1` (stereo partly drawn) [Example 262, 2-((3R,4S)-3-(3,4-difluorophenyl)-4-(3-(2-phenyl-2,4,5,6-tetrahydrocyclopenta[c]pyrazol-3-yl)ureido)pyrrolidin-1-yl)-3-methoxypropanoic acid hydrochloride] it is 5.00 to 6.00. `COCCN1C[C@@H](NC(=O)Nc2c(Cl)c([C@H]3CCCN3C(=O)OC(C)(C)C)nn2-c2ccccc2)[C@H](c2ccc(F)c(F)c2)C1` [Example 572, (R)-tert-butyl 2-(4-chloro-5-(3-((3S,4R)-4-(3,4-difluorophenyl)-1-(2-methoxyethyl)pyrrolidin-3-yl)ureido)-1-phenyl-1H-pyrazol-3-yl)pyrrolidine-1-carboxylate] showed a pIC50 of 6.00 to 7.00. `COCCN1C[C@@H](NC(=O)Nc2c(Cl)c(-c3ccccc3)nn2-c2cccnc2)[C@H](c2ccc(F)c(F)c2)C1` [Example 485, 1-(4-chloro-3-phenyl-1-(pyridin-3-yl)-1H-pyrazol-5-yl)-3-((3S,4R)-4-(3,4-difluorophenyl)-1-(2-methoxyethyl)pyrrolidin-3-yl)urea]: the pIC50 was 6.00 to 7.00.
